Laboratory results taken from patent publication US9334303B2, “Peptide compound useful for inhibiting amyloid plaque formation” (KIMONELLA VENTURES LTD., priority 2010, dated 2016).
Where a SMILES comes first, the peptide text is derived from it.

How the values were obtained:
[1] = target: T1, immobilized peptide fragment corresponding to the region 1-16 of the amyloid-β peptide (Homo sapiens, UniProt P05067); assay: SPR binding (BIACORE T100), Example 3, in the absence of zinc; conditions: for Kd: BIACORE T100, no zinc, at least 99% L isomers, read-out: dissociation constant Kd (Example 3)
T1 construct: N-terminal acetyl cap (Ac); C-terminal amide cap (NH2)
T1 sequence (P05067 with tags, fused parts or gaps limits assumed): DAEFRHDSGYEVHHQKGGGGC
Text: The binding tests described in Example 1 were reproduced, with the same materials, reactives and procedures except for the following significant differences: • the BIACORE apparatus applied was the BIACORE T100 apparatus. This BIACORE T100 apparatus produces more accurate results than the BIACORE 3000 because it includes a degasification system upon injecting the analyte on the sensor and because the method for detecting immobilized ligand/analyte intermolecular complexes on the CM5 chip is more accurate. • the tetrapeptides according to the invention used were purified to at least 99% in L isomers according to HPLC data, the D isomers were prevented from forming and/or removed during the synthesis. In Example 1, the tetrapeptides only included 98% of L isomers. • the concentrations of the tetrapeptides according to the invention applied were 50; 100; 200; 500; 1,000; 1,500 and 2,000 μM. • these experiments were conducted in the absence of zinc. • the surface of the CM5 chips provided a surface which gave a variation of response units (RU) of about 1,023 arbitrary units, with a control liquid sample.
the dissociation constant Kd being given by the formula Kd=koff/kon.

Aβ peptide (1-40) = target: T2, Aβ peptide (1-40) (Homo sapiens, UniProt P05067); assay: Aβ aggregation on SYNTHALOID SCREENING PLATE kit (fluorescence); assay type: biochemical; conditions: for IC50: 100 nM marked Aβ (1-40), 3 hours at room temperature, buffer with physiological Zn(II), read-out: inhibitory concentration IC50 of aggregation of the Aβ peptide; for effect of prolonged incubation on amyloid aggregates: incubation for at least 1 hour, 20, 40, 80, 100 and 150 μM
T2 construct: The complete β peptide 1-40 was used, marked by a fluorescent marker; purchased QUALITY CONTROLLED BIOCHEMICALS Inc. USA
T2 sequence (P05067 672-711 limits assumed): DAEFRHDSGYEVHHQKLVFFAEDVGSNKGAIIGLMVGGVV
Protocol: They were left to incubate for 3 hours at room temperature in the wells.
In certain wells, tetrapeptides AC-HAEE-NH2 and Ac-RADD-NH2 according to the invention, were introduced at different concentrations depending on the wells (0, 5, 10, 20, 40, 80, 100 and 150 μM), for checking the effect of tetrapeptides according to the invention on the aggregation phenomenon of Aβ peptides.
To do this, at the end of the incubation, the unbound proteins in the wells were removed with three washings, by using the buffer solution above. The amount of bound proteins in the form of aggregates, bound to the well, was measured by measuring the fluorescence intensity.

[2] = target: T3, immobilized peptide fragment corresponding to the 1-16 region of the amyloid-β peptide (Homo sapiens, UniProt P05067); assay: SPR binding (BIACORE 3000), Examples 1 and 2
T3 construct: N-terminal acetyl cap (Ac); C-terminal amide cap (NH2)
Text: With this analysis, it is possible to calculate the dissociation constant Kd of the interaction of the peptide with the immobilized ligand, it being understood that the value of Kd is all the more smaller since the interaction with the ligand and therefore the stability of the formed interaction complex are high.
More specifically, in an SPR spectroscopy system, for example applying a biosensor from BIACORE, after immobilization of the ligand at the surface of a sensor of the chip type, in this case here the amyloid-β fragment, the analyte reagent is injected on said surface at a constant flow rate through systems of microfluidic channels. Polarized light emitted by a light source is reflected on the gold-covered surface of the chip, and then detected by a diode reader. According to the binding of the ligand and of the analyte molecule, the intensity of the reflected light is different. The variation in the response of the spectrometer (RU=Response unit) allows calculation of the dissociation constant of the interaction.
The chips of the biosensor came from GE Healthcare (USA). The SPR spectroscopy experiments were conducted with the BIACORE 3000 apparatus. The reagents for immobilizing the amyloid-β peptide fragment (EDC, NHS, PDEA and cysteine) were bought from GE Healthcare (USA). The buffer used for immobilizing the peptide ligand by formation of thiol bonds was 10 mM sodium acetate at pH 4.5. The regeneration buffer was an HBS buffer containing a medium with 10 mM HEPES and 3 mM EDTA, 0.005% of surfactant P20 and 150 mM NaCl at pH 7.4. […] All the buffers were filtered before use.
This peptide with 21 amino acids contains the 16 amino acids of the N-terminal end of the binding domain of the amyloid-β, i.e. [sequence] (SEQ. ID. NO.25), followed by 4 glycine amino acids and a cysteine C-Terminal end. Cysteine is necessary for immobilizing the ligand on the surface of the chip through a thiol bond according to the procedure of the supplier. 4 glycine amino acids therefore form a binding tetrapeptide (“linker”) between the chip and the ligand. Further, the thereby immobilized ligand has enough flexibility relatively to the surface, so as to validly mimic the interaction conditions between the tetrapeptide reagent and the ligand. This ligand was bound onto a CM5 chip of the biosensor, by following the standard procedure through a thiol bond under conditions described in the handbook of the sensor provided by the supplier GE Healthcare (USA).
The flow rate applied in all the steps was 5 μl/min. The carboxymethyl dextran matrix was activated by injecting a 1:1 mixture of 1-ethyl-3(3-dimethylaminopropyl)-carbodiimide (EDC) and of N-hydroxysuccinimide (NHS), i.e. 30 μl of EDC at 400 mM and NHS at 100 mM, followed by an injection of 80 mM PDEA (2-(2-pyridinyldithio)-ethane-amine) in solution in 0.1 M sodium borate at a pH of 8.5. The peptide ligand in solution in a sodium acetate buffer in an amount of 0.05 mg/ml was then injected. […] The control liquid was reacted with the surface of the chip according to the same procedure.
The surface of the chip was exposed for 330 seconds to the reagent buffer solution in order to track its binding. The surface of the chip was then regenerated by injecting a regeneration buffer (20 μL). The data of the control lane were subtracted from raw data of the lane corresponding to the immobilized reagent peptides.

| Compound | koff [1] [s⁻¹] | kon [1] [M⁻¹ s⁻¹] | Kd [1] [µM] | IC50 (Aβ peptide (1-40)) [µM] | effect of prolonged incubation on amyloid aggregates (Aβ peptide (1-40)) | Kd ([2]; BIACORE 3000, peptides with Ra=Ac, Rb=NH2, 98% L isomers, read-out: dissociation constant Kd) [µM] | interactions of the ligand with the reagent at high concentrations of Zn(II) ions ([2]; Zn(II) 10 mM) | dissociation constant in the presence of physiological concentrations of Zn(II) ions ([2]; Zn(II) 100-400 μM) | interactions with the 1-16 domain of Aβ at higher concentrations of Zn(II) ions ([2]; Zn(II) of the order of 1 millimolar (mM)) | binding to the 1-16 domain of the amyloid-β in the presence or absence of Zn(II) ions ([2]; physiological Zn(II), micromolar levels (less than 500 μM)) |
| --- | --- | --- | --- | --- | --- | --- | --- | --- | --- | --- |
| CC(=O)N[C@@H](CC(=O)O)C(=O)N[C@@H](CC(=O)O)C(=O)N[C@@H](C)C(=O)N[C@@H](CCCCN)C(N)=O [SEQ. ID. NO. 4, DDAK] (Ac-DDAK-NH2) | 0.0062 ± 0.0001 | 4.57 ± 0.09 | 1000 to 10000 |  |  |  |  |  |  |  |
| CC(=O)N[C@@H](CCCCN)C(=O)N[C@@H](C)C(=O)N[C@@H](CC(=O)O)C(=O)N[C@@H](CCC(=O)O)C(N)=O [SEQ. ID. NO. 15, KADE] (Ac-KADE-NH2) | 0.0096 ± 0.0002 | 2.2 ± 0.1 | 1000 to 10000 |  |  |  |  |  |  |  |
| CC(=O)N[C@@H](Cc1c[nH]cn1)C(=O)N[C@@H](C)C(=O)N[C@@H](CC(=O)O)C(=O)N[C@@H](CC(=O)O)C(N)=O [SEQ. ID. NO. 1, HADD] (Ac-HADD-NH2) | 0.0104 ± 2e-05 | 3.2 ± 0.08 |  |  |  |  |  |  |  |  |
| CC(=O)N[C@@H](CCCNC(=N)N)C(=O)N[C@@H](C)C(=O)N[C@@H](CCC(=O)O)C(=O)N[C@@H](CCC(=O)O)C(N)=O [SEQ. ID. NO. 23, RAEE] (Ac-RAEE-NH2) | 0.0112 ± 8e-05 | 1.5 ± 0.1 | 1000 to 10000 |  |  |  |  |  |  |  |
| CC(=O)N[C@@H](CCCNC(=N)N)C(=O)N[C@@H](C)C(=O)N[C@@H](CC(=O)O)C(=O)N[C@@H](CC(=O)O)C(N)=O [SEQ. ID. NO. 5, Ac-RADD-NH2] (Ac-RADD-NH2) | 0.00024 ± 4e-05 | 18.5 |  | 20 | irreversible disaggregation |  |  |  |  |  |
| CC(=O)N[C@@H](CCCCN)C(=O)N[C@@H](C)C(=O)N[C@@H](CCC(=O)O)C(=O)N[C@@H](CC(=O)O)C(N)=O [SEQ. ID. NO. 9, KAED] (Ac-KAED-NH2) | 0.019 ± 0.001 | 5.7 ± 0.9 | 1000 to 10000 |  |  |  |  |  |  |  |
| CC(=O)N[C@@H](Cc1c[nH]cn1)C(=O)N[C@@H](C)C(=O)N[C@@H](CCC(=O)O)C(=O)N[C@@H](CCC(=O)O)C(N)=O [SEQ. ID. NO. 19, Ac-HAEE-NH2] (Ac-HAEE-NH2) | 3.5e-05 ± 8e-06 | 0.37 ± 0.05 |  | 20 | irreversible disaggregation | 0.022 | suppressed the interactions | practically unchanged | suppress the interactions | practically not altered |
| CC(=O)N[C@@H](CC(=O)O)C(=O)N[C@@H](CCC(=O)O)C(=O)N[C@@H](C)C(=O)N[C@@H](CCCNC(=N)N)C(N)=O [SEQ. ID. NO. 12, DEAR] (Ac-DEAR-NH2) | 0.00709 ± 9e-05 | 3.58 ± 0.08 | 1000 to 10000 |  |  |  |  |  |  |  |
